This is an account of results in ChEMBL document CHEMBL1817579, “Activation and inhibition of CTP synthase from Trypanosoma brucei, the causative agent of African sleeping sickness” (Bioorg Med Chem Lett, 2011).

Test [1] is described as follows: Inhibition of N-terminal His6-tagged Trypanosoma brucei CTPS assessed as NH3-dependent CTP formation by continuous spectrophotometric assay.
Test [2] in a line: Activity of Escherichia coli CTPS assessed as conversion of UTP to CTP at pH 7.3 by continuous spectrophotometric assay.
Test [3] can be described thus: Activity of N-terminal His6-tagged Trypanosoma brucei CTPS assessed as conversion of UTP to CTP at pH 7.3 by continuous spectrophotometric assay.
Test [4] concerns Trypanosoma brucei. The conditions noted are these: 5.67 mM.
Description: Inhibition of N-terminal His6-tagged Trypanosoma brucei CTPS assessed as conversion of UTP to CTP at 5.67 mM by continuous spectrophotometric assay
Test [5] deals with Trypanosoma brucei. The settings on record: 494.32 mM.
Description: Inhibition of N-terminal His6-tagged Trypanosoma brucei CTPS assessed as conversion of UTP to CTP at 494.32 mM at pH 7.3 by continuous spectrophotometric assay
The subject of test [6] is Escherichia coli.
Test [7] deals with Trypanosoma brucei.
Description: Ratio of Kcat to Km for N-terminal His6-tagged Trypanosoma brucei CTPS assessed as conversion of UTP to CTP by continuous spectrophotometric assay
Test [8] deals with Escherichia coli. This is another data set of the same source.
Description: Ratio of Kcat to Km for Escherichia coli CTPS assessed as conversion of UTP to CTP by continuous spectrophotometric assay
In test [9] the test system is Trypanosoma brucei. This is another data set of the same source.
Test [10] has as its system Escherichia coli. The test is described as follows: Activation of Escherichia coli CTPS assessed as Gln-dependent CTP formation at < 0.15 mM by continuous spectrophotometric assay.
The test system of test [11] is Escherichia coli. Briefly: Inhibition of Escherichia coli CTPS assessed as Gln-dependent CTP formation at > 0.15 mM by continuous spectrophotometric assay.
Test [12] concerns Trypanosoma brucei. Briefly: Activation of N-terminal His6-tagged Trypanosoma brucei CTPS assessed as Gln-dependent CTP formation by continuous spectrophotometric assay.
In test [13] the test system is Trypanosoma brucei. Briefly: Inhibition of N-terminal His6-tagged Trypanosoma brucei CTPS assessed as Gln-dependent CTP formation at by continuous spectrophotometric assay.
Test [14] relates to Trypanosoma brucei. Briefly: Activation of N-terminal His6-tagged Trypanosoma brucei CTPS assessed as Gln-dependent CTP formation at <0.2 mM by continuous spectrophotometric assay.
Test [15] relates to Trypanosoma brucei. Briefly: Inhibition of N-terminal His6-tagged Trypanosoma brucei CTPS assessed as Gln-dependent CTP formation at > 0.2 mM by continuous spectrophotometric assay.

Active and inactive are the calls of the source. The rule behind the calls is not given here.

In the case of `Cn1c(=O)c2c(ncn2C)n(C)c1=O` [CAFFEINE], the 50% inhibitory concentration (IC50) in test [1] worked out at 480 µM.
`Nc1nc2c(ncn2[C@@H]2O[C@H](CO)[C@@H](O)[C@H]2O)c(=O)[nH]1` [GUANOSINE]: the IC50 in [1] is 380 µM.
Consider `N` [AMMONIA SOLUTION, STRONG], for which the Ki in [2] was 1400 µM; in test [3], 5700 µM. For the same molecule, the inhibition entry with Trypanosoma brucei [4] and in the test with Trypanosoma brucei [5] was “Active” in each case. Further, the Ks in the test with Escherichia coli [6] came out at 1.1 mM; in the test with Trypanosoma brucei [9], 2.2 mM. The kcat in the test on Escherichia coli [6] turned out to be 4.4 s⁻¹; in the test on Trypanosoma brucei [9] it was 1.6 s⁻¹. Further, the kcat/Km in the test on Trypanosoma brucei [7] came out at 727 M⁻¹ s⁻¹; with Escherichia coli [8], 4 ×10³ /M/s.
Consider `Nc1nc(=O)c2ncn([C@@H]3O[C@H](COP(=O)(O)OP(=O)(O)OP(=O)(O)O)[C@@H](O)C3O)c2[nH]1` (single isomer, unassigned) [GTP], for which the kcat in the test with Escherichia coli [10] was determined as 10.6 s⁻¹. Besides, the inhibition result with Escherichia coli [11] is “Active”. Besides, in the test with Trypanosoma brucei [12], the KA was determined as 57 µM and the Kact is 0.87 s⁻¹. The inhibition entry in the test on Trypanosoma brucei [13] is “Active”. In test [1], the IC50 worked out at 460 µM and the Ki turned out to be 272 µM. Moreover, the outcome in the test with Trypanosoma brucei [14] was Active. Besides, in the test with Trypanosoma brucei [15], the inhibition result is “Active”.
Take `Oc1nc(O)c2nc(O)[nH]c2n1` [URIC ACID]: the 50% inhibitory concentration (IC50) in test [1] was determined as 100 µM.
